For one molecule, IC50 results are on record in US6492401B1, “N-[(substituted five-membered di- or triaza diunsaturated ring)carbonyl] guanidine derivatives for the treatment of ischemia” (Pfizer, Inc., priority 1998, dated 2002).

In this assay the target is T1, human NHE-1 (Homo sapiens, UniProt P19634).
T1 construct: expressed in transfected cells; host or cells: fibroblasts stably expressing human NHE-1 (cell line per Counillon et al., Mol. Pharmacol. 44:1041-1045, 1993)
In words: Measurement of human NHE-1 inhibitory activity (NHE-mediated recovery of intracellular pH after acidification, BCECF fluorescence). In kind it is cell-based. Particulars: fibroblasts stably expressing human NHE-1.

T1 sequence (P19634 whole entry): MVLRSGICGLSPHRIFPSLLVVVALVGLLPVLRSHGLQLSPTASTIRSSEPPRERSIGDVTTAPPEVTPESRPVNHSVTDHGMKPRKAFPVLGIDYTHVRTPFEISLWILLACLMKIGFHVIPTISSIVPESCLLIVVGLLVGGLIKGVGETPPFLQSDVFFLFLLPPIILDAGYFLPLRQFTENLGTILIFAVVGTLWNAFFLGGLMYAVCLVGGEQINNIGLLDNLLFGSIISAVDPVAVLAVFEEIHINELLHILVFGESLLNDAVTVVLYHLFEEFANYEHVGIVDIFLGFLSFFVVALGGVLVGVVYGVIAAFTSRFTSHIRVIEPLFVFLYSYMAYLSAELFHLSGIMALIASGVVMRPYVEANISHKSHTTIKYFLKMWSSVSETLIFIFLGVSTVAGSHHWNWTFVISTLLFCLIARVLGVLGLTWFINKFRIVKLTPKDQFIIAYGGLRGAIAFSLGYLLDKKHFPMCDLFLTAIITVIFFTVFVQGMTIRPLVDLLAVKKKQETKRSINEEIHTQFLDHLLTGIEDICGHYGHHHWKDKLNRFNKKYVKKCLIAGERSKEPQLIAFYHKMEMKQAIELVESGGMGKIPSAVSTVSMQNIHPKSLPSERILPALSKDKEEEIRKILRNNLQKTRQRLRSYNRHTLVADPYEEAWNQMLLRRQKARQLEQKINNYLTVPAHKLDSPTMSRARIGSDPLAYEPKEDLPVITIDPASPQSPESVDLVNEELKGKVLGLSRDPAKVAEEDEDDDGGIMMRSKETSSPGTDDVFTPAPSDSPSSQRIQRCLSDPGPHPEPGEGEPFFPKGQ
Experimental: Methodologies for measurement of human NHE-1 activity and inhibitor potency are based on those published by Watson et al., Am. J. Physiol., 24:G229-G238, 1991), where NHE-mediated recovery of intracellular pH is measured following intracellular acidification. Thus, fibroblasts stably expressing human NHE-1 (Counillon, L. et al., Mol. Pharmacol., 44:1041-1045 (1993) are plated onto collagen coated 96 well plates (50,000/well) and grown to confluence in growth media (DMEM high glucose, 10% fetal bovine serum, 50 u/ml penicillin and streptomycin). Confluent plates are incubated for 30 min at 37° C. with the pH sensitive fluorescent probe BCECF (5 μM; Molecular Probes, Eugene, Oreg.). BCECF loaded cells are incubated for 30 min at 37° C. in acid loading media (70 mM choline chloride, 50 mM NHCl4, 5 mM KCl, 1 mM MgCl2, 1.8 mM CaCl2, 5 mM glucose, 10 mM HEPES, pH 7.5), and then placed in a Fluorescent Imaging Plate Reader (Molecular Devices, CA). BCECF fluorescence is monitored using excitation and emission wavelengths of 485 nm and 525 nM, respectively. Intracellular acidification is initiated via rapid replacement of acid loading media with recovery media (120 mM NaCl, 5 mM KCl, 1 mM MgCl2, 1.8 mM CaCl2, 5 mM glucose, 10 mM HEPES, pH 7.5)±test compound, and NHE-mediated recovery of intracellular pH is monitored as the subsequent time-dependent increase BCECF fluorescence.

Broadly, the IC50 is the midpoint of a concentration-inhibition curve. High values mean weaker potency in that assay, low ones greater potency in that assay. `CC(C)c1ccc(C(=O)NC(=N)N)cc1S(C)(=O)=O` [HOE-642] displayed an IC50 of 500 nM.
